Molecules are shown by their SMILES.

`C=C1CC2C(CCC3(C)C2CCC3(OC(C)=O)C(C)=O)C2(C)CCC(=O)C=C12` (configuration not stated) had a melting point of 234 to 236 °C.

`CSc1cc(Nc2cccc(C)c2)c(S(=O)(=O)NC(C)(C)C)cn1` showed a melting point of 178 °C.

Consider `Cc1cc(NS(=O)(=O)c2ccc(S(C)(=O)=O)cc2)cc(C)c1S(=O)(=O)C[N+](=O)[O-]`, for which the melting point lay within 192 to 194 °C.

On to `O=C(Nc1cc([N+](=O)[O-])cc([N+](=O)[O-])c1)c1cc(Br)ccc1O`, for which the melting point lay within 258 to 260 °C.

As to `O=C1c2ccccc2-c2c1c1ccccc1c(=O)n2C1CC1`, the melting point was in the range of 206 to 208 °C.

`CC(=O)c1cc(N2CCCC2)ccc1NC(=O)c1ccc(OCc2ccccc2)cc1` came in with a melting point of 175 to 178 °C.

As to `O=c1oc(C(F)(F)F)nc(-c2ccccc2)c1-c1ccccc1`, the melting point came out at 118 °C.

Take `CC(C)C(CCl)NC(=O)c1nsc2ccc(-n3c(=O)cc(C(F)(F)F)n(C)c3=O)cc12` (configuration not stated): the melting point was 196 to 197 °C.

In turn, `CCC1N=C(c2ccccc2Cl)c2cc(CCC(=O)OC)sc2NC1=S` (configuration not stated) came in with a melting point of 173 to 176 °C.

On to `O=C(NC1=NCCC1)Nc1ccc(Br)cc1`, for which the melting point was in the range of 221 to 224 °C.

The molecule `CN(C)C=NS(=O)(=O)c1cc(C(C)(C)C)cc(C=O)c1O` registered a melting point of 182 to 183 °C.

Molecule `CCN(CC)c1ccc(C=O)c(OCCN2CCOCC2)c1` displayed a melting point of 107 to 109 °C.

`Nc1nc2c(sc(=O)n2Cc2ccc(Cl)cc2)c(=O)[nH]1`: the melting point was > 320 °C.

Molecule `CC(Cl)c1cc(F)ccc1Oc1nc2ccc(-n3cc(-c4ccccc4)nn3)cc2cc1Cc1ccccc1` (configuration not stated) yielded a melting point of 151 to 152 °C.

In turn, `O=C(C=Cc1ccc(Cl)cc1)NN1CC(=O)NC1=O` displayed a melting point of 230 to 235 °C.

Consider `CC(=NNc1nnc(-n2c(=S)[nH]c3ccccc32)s1)c1ccccn1`, for which the melting point was > 280 °C.

On to `N=C(N)c1nc2c(s1)CCc1c-2sc2ncnn12`, for which the melting point was > 300 °C.

`C=C[C@@H]1O[C@](C#CC2CC2)(C(F)(F)F)c2c(ccc(F)c2F)NC1=O` (relative stereo): the melting point lay in the range of 171 to 172 °C.

In turn, `CC1Oc2ccc(Cn3ccnc3)cc2NC1N` (configuration not stated) registered a melting point of 152 to 156 °C.

For `Cc1cc(C(C)(C)C)c(Cl)c(C)c1SSc1c(C)cc(C(C)(C)C)c(Cl)c1C`, the melting point was 128 to 129 °C.

On to `CC(C)(C)OC(=O)N(CCCCCCN1C(=O)c2ccccc2C1=O)CCN(CCCCCCN1C(=O)c2ccccc2C1=O)C(=O)OC(C)(C)C`, for which the melting point is 96 °C.

`CCCn1c(=O)c2[nH]c(C3CCCS3)nc2n(CCC)c1=O` (configuration not stated) gave a melting point of 224 to 226 °C.

`CN1c2cscc2C(=O)N(CCN2CCCCC2)c2ccccc21`: the melting point fell in the range of 84 to 88 °C.

Regarding `CC12CCC3C(C=CC4=CC(=O)CCC43CO)C1CCC2C(=O)CO` (configuration not stated), the melting point lay in the range of 161 to 164 °C.

For `COc1ccc(-n2cnc(SC)n2)cc1`, the melting point was found to be 54.9 °C.

`COC[C@@H]1CCCN1S(=O)(=O)c1ccc(Cl)c(COc2cccc3c(-n4cccn4)cc(C)nc23)c1Cl` yielded a melting point of 75 °C.

In turn, `CCOC(=O)Nc1cccc(N2CCN(CCC3CCN(CC(C)=O)CC3)CC2)c1` gave a melting point of 118 °C.

Take `COc1ccc(-c2nc3n(c2-c2ccc(OC)cc2)C(F)C(F)(F)S3)cc1` (configuration not stated): the melting point was in the range of 160 to 162 °C.

Molecule `COc1nc(N)nc(C(F)(F)F)n1` yielded a melting point of 161 to 164 °C.

`CC(C)(C)OC(=O)N1CCN(c2cccc3cc[nH]c23)CC1` registered a melting point of 150 to 151 °C.

`O=C1c2ccccc2C(=O)N1CCc1nnc2n1-c1ccc(Cl)cc1C(c1ccccc1)=NC2` yielded a melting point of 133 to 134 °C.

Molecule `CCCC(=O)Oc1ccc(C(O)CNC(C)(C)C)cc1OC(=O)CCC` (configuration not stated) had a melting point of 97 to 99 °C.

Molecule `COc1ccc2c(c1)c(Cc1cc(=O)n(C3CCCCC3)[nH]1)c(C)n2Cc1ccccc1` came in with a melting point of 102 to 105 °C.

The molecule `C=CCn1nc(C)c(CC(=O)O)c1C` returned a melting point of 139 to 140 °C.

`CC(=O)C1C(=O)CC(C#N)CC1=O` (configuration not stated) had a melting point of 66 to 69 °C.

`Nc1nc(NCc2ccccc2)c2ncn(C3CC(F)C(CO)O3)c2n1` (configuration not stated) showed a melting point of 90 to 94 °C.

Molecule `CS(=O)(=O)Nc1cc(C(O)CNCCCCCCOCCCCOc2ccc3ccccc3c2)ccc1O` (configuration not stated) registered a melting point of 99.5 to 100 °C.

On to `C=C(C)c1ccc(O)cc1`, for which the melting point was in the range of 167 to 168 °C.

Turning to `COc1cc(Br)c(C(C)=NOCc2ccc([N+](=O)[O-])cc2)cc1O`, the melting point is 137 to 138 °C.

`CC1CCN(c2c(-c3c(F)cc(F)cc3F)c(Cl)nc3nc(SCc4ccccc4)nn23)CC1` showed a melting point of 147 °C.

Molecule `O=C(Nc1ccccc1C(=O)c1ccc(OC(F)(F)F)cc1)c1ccncc1` displayed a melting point of 112 to 114 °C.

In turn, `CC(C)(C)OC(=O)[C@@H]1CSC(Cc2ccccc2)N1C(=O)CNC(=O)Nc1cccc(CC(=O)O)c1` (some centres not stated) returned a melting point of 110 °C.

`COc1ccc2c(c1)OCN(CCO[N+](=O)[O-])C2=O` yielded a melting point of 97 to 99 °C.

The molecule `CCOC(=O)c1c(CC(=O)O)n(-c2ccc(OC(C)C)cc2)c2ccc(Oc3ccc(C(F)(F)F)cc3)cc12` returned a melting point of 158 °C.

For the molecule `C/C(=C\c1ccc(C(=O)O)cc1)c1cc2c(s1)C(C)(C)CCC2(C)C`, the melting point lay in the range of 236 to 238 °C.

Turning to `CN(C)c1ccc(/C=C/c2c(F)cccc2Cl)cc1`, the melting point was in the range of 42 to 44 °C.

Molecule `COCc1c(-c2csc(C)n2)ncc2c1c1cc(OCc3ccccc3)ccc1n2S(=O)(=O)c1ccc(C)cc1` gave a melting point of 173 to 175 °C.

`O=C1c2ccccc2C(=O)N1CCOCCl`: the melting point fell in the range of 69 to 72 °C.

The molecule `CNS(=O)(=O)Nc1ncccc1C(=O)OC` displayed a melting point of 133 to 139 °C.

As for `Fc1cccc2onc(Nc3ccncc3)c12`, the melting point lay in the range of 160 to 161 °C.

For `COc1ccc(CC(OC)C(=O)O)cc1NC(=O)Cc1ccc(C(F)(F)F)cc1` (configuration not stated), the melting point is 124 to 125 °C.

`CCCCCNc1ccc(OC2CCN(C(C)=O)CC2)cc1` returned a melting point of 69 to 71 °C.

Turning to `N#Cc1c(N2CCN(C(=O)c3cccs3)CC2)c2cscc2n(Cc2ccc(F)cc2)c1=O`, the melting point stood at 238 °C.

`O=C1NCCc2ccccc2C1c1ccccc1` (configuration not stated) registered a melting point of 95 to 96 °C.

As to `Fc1c(F)c(F)c(CSc2ncccn2)c(F)c1F`, the melting point fell in the range of 89 to 92 °C.

As to `CCCCCS(=O)(=O)NC(=O)/C(C)=C/c1ccc(OCCOC)cc1Oc1ncc(C(F)(F)F)cc1Cl`, the melting point is 108 to 111 °C.

As for `CC(=O)NCc1ccc2ccn(C3CCN(CCc4ccccc4F)CC3)c2c1`, the melting point was in the range of 101 to 102 °C.

As to `O=C(c1ccccc1)c1ccccc1SSc1ccccc1C(=NO)c1ccccc1`, the melting point fell in the range of 191 to 193 °C.

In the case of `Nc1nnc(-c2ccccc2Cl)c(-c2ccccc2Cl)n1`, the melting point lay within 240 to 242 °C.

In the case of `O=[N+]([O-])c1oc2ccc(NCc3ccccc3)cc2c1-c1ccccc1`, the melting point lay in the range of 118 to 120 °C.

As for `O=C(Cn1c(-c2cccs2)ncc(NC(=O)OCc2ccccc2)c1=O)NC(Cc1ccccc1)C(=O)C(F)(F)F` (configuration not stated), the melting point fell in the range of 108 to 111 °C.

For `COc1cc(C=CC(=O)Nc2c(-c3ccccc3Cl)c3cc(C)c(C)cc3n(C)c2=O)cc(OC)c1OC(C)=O`, the melting point fell in the range of 259 to 260 °C.

On to `COc1ccc(-c2cc(C(=O)NCc3ccccc3)c(=O)n(C)n2)cc1`, for which the melting point lay within 145 to 146 °C.

For `CNS(=O)(=O)C(C)C(=O)C=C(C)N` (configuration not stated), the melting point is 140 to 143 °C.

Regarding `CC1(O)C=CC2C3CCC4=CC(=O)CCC4C3C(c3ccc(-c4ccoc4)cc3)CC21C` (configuration not stated), the melting point came to 179 °C.

`CC(C)C1(C#N)c2ccccc2C=CN1C(=O)c1ccccc1` (configuration not stated) showed a melting point of 124 to 126 °C.

In turn, `C=Cc1ccc(COc2ccc(CCl)cc2)cc1` gave a melting point of 110 to 112 °C.

Regarding `CC1CC(N)(C(=O)O)c2cc(F)ccc2O1` (mixture of isomers), the melting point was in the range of 153 to 156 °C.

`COC(=O)c1c(OCC#N)c2cc(OC)ccc2n1C`: the melting point was 136 to 137 °C.

`O=C(Cc1ccncc1)Nc1cccc(-c2ccnc3c(C(=O)c4cccs4)cnn23)c1` registered a melting point of 130 to 131 °C.

In the case of `Cc1ccccc1C1=NC(C)(C)OC1c1ccc(N(C)C)cc1` (configuration not stated), the melting point fell in the range of 89 to 90 °C.

`COc1cccc(CSCCNC(=O)c2c(Cl)cccc2OC)c1`: the melting point was in the range of 58 to 59 °C.

The molecule `CCCn1c(=O)c2[nH]c(-c3cc(C)n(CC(=O)Nc4ccc(OC)c(OC)c4)n3)nc2n(CCC)c1=O` showed a melting point of 285 to 290 °C.

As for `CCOC(=O)c1ccc2oc3ccc(OC)cc3c(=O)c2c1`, the melting point fell in the range of 170 to 172 °C.

For `CC[Si](CC)(CC)c1ccccc1S(=O)(=O)NC(=O)Nc1nc(OC)cc(OC)n1`, the melting point is 136 °C.

`COc1ccc2c3c(ccc2c1)-c1ccccc1C3c1ccc(OCCN2CCCCC2)cc1` (configuration not stated) yielded a melting point of 130 to 133 °C.

For the molecule `CCOC(=O)c1nc2ccc(OC)cc2[nH]c1=O`, the melting point was 229 °C.

With `COc1cc2c(cc1OC)C(C(CO)CO)N(C(=O)Nc1ccccc1)CC2` (configuration not stated), the melting point was in the range of 191 to 192 °C.

Molecule `c1cc2c(cn1)ncn2CCCCc1nnnn1C1CCCCC1` showed a melting point of 93 to 95 °C.

As to `CS(=O)(=O)C(=C1CN(C(c2ccccc2)c2ccccc2)C1)c1cccc(C(F)(F)F)c1`, the melting point turned out to be 178 °C.

`COC(=O)P(=O)(OC)OC` came in with a melting point of 150 °C.

`CCOC(=O)c1nc(C)n2c1CN=C(c1ccccc1Cl)c1cc([N+](=O)[O-])ccc1-2` had a melting point of 233 to 234 °C.

In the case of `CC(C)(C)c1nc2cc(N3CCCCC3)c(N=C=S)cc2s1`, the melting point was 112 to 114 °C.

As to `Cc1cccc2c1C(=O)C(CO)(CO)CS2`, the melting point was in the range of 138 to 142 °C.

On to `NC(=O)C1(CCC(=O)O)c2ccccc2-c2ccccc21`, for which the melting point lay within 191 to 192 °C.

As for `O=c1[nH]c(C(F)(F)F)nc2ccc(I)cc12`, the melting point is > 255 °C.

`COc1ccc(N2c3ccccc3S(=O)(=O)c3ccccc32)cc1` had a melting point of 265 to 266 °C.

The record behind these values is a melting point compilation (Tetko et al.; mined from patent text by program, amines drawn as free bases though some values may be those of a salt).
